According to patent US10670605B2, “Cysteine reactive probes and uses thereof” (The Scripps Research Institute, priority 2015, dated 2020):
Counter-ions that a name gives are not always drawn.

How the values were obtained:
Assay in all cases: isoTOP-ABPP of compound-treated primary human T cells
Assay type in all cases: cell-based
[1] = molecular target: T1, Cys residues in primary human T cells (Homo sapiens, UniProt Q9Y4W2); conditions: LAS1L C456 (Q9Y4W2)
T1 sequence (Q9Y4W2 1-734): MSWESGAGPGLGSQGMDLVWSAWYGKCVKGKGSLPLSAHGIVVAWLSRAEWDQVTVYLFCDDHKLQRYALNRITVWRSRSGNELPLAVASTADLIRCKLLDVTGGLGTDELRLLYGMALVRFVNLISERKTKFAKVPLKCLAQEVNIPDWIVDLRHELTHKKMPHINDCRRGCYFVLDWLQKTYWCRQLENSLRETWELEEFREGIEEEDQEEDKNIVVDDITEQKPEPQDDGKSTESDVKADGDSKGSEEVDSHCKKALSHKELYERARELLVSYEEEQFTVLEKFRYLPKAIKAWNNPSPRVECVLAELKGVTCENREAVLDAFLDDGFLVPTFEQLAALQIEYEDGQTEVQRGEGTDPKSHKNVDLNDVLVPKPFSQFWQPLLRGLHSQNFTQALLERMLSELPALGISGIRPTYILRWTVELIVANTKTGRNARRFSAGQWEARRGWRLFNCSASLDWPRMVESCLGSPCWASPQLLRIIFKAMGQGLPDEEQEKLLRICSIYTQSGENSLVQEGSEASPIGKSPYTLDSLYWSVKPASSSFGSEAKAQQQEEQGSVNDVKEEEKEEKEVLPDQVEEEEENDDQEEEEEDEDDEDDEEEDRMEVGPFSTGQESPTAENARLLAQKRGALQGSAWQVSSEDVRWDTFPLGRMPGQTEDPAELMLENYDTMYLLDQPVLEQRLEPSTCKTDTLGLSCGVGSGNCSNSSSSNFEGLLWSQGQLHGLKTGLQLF

[2] = molecular target: T2, Cys residues in primary human T cells (Homo sapiens, UniProt Q96GW9); conditions: MARS2 C425 (Q96GW9)
T2 sequence (Q96GW9 30-593): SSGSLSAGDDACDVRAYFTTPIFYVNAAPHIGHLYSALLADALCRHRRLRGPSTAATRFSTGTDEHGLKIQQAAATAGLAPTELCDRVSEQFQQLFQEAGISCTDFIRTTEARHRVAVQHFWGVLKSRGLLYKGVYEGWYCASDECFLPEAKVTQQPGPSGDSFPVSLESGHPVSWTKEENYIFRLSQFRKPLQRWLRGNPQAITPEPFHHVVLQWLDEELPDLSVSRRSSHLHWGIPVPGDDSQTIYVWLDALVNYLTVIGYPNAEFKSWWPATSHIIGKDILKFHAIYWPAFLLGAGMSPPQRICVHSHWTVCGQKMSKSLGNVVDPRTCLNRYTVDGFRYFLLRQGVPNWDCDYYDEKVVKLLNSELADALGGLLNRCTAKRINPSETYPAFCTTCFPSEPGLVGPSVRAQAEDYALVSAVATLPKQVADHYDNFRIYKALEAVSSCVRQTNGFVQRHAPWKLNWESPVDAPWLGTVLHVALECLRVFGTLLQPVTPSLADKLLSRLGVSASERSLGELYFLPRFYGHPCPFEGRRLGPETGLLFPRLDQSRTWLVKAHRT

[3] = molecular target: Cys residues in primary human T cells (Homo sapiens, UniProt O00170); conditions: AIP C122 (O00170)
[4] = molecular target: T3, Cys residues in primary human T cells (Homo sapiens, UniProt Q6IA69); conditions: NADSYN1 C428 (Q6IA69)
T3 sequence (Q6IA69 1-706): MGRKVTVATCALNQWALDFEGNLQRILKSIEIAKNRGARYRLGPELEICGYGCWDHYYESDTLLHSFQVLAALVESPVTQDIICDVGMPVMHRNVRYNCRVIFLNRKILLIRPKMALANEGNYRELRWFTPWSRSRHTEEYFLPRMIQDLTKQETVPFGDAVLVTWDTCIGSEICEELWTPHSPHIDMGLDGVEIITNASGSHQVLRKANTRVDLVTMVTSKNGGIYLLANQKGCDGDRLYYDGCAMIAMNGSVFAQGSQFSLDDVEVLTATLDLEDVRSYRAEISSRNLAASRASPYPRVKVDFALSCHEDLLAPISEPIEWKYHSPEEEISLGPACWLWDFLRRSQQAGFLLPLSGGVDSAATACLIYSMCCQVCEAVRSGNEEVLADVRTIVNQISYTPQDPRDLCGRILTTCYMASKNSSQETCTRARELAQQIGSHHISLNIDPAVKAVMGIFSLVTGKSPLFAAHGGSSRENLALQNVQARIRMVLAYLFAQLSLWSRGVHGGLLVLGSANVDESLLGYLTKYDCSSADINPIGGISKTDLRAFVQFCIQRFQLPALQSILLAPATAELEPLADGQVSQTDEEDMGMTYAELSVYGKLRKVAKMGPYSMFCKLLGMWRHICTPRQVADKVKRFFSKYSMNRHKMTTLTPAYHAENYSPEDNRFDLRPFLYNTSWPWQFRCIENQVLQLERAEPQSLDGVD

[5] = molecular target: T4, Cys residues in primary human T cells (Homo sapiens, UniProt A6NDG6); conditions: PGP C297 (A6NDG6)
T4 sequence (A6NDG6 1-321): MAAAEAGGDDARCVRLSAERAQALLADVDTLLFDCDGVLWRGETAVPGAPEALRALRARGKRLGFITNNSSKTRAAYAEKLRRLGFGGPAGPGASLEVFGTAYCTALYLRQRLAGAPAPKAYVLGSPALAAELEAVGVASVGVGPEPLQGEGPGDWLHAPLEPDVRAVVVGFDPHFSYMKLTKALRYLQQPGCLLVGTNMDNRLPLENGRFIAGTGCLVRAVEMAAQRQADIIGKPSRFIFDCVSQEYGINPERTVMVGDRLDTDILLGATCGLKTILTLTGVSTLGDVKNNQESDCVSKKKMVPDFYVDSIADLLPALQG

Cys residues in primary human T cells (Homo sapiens, UniProt O00170), sequence (O00170 whole entry): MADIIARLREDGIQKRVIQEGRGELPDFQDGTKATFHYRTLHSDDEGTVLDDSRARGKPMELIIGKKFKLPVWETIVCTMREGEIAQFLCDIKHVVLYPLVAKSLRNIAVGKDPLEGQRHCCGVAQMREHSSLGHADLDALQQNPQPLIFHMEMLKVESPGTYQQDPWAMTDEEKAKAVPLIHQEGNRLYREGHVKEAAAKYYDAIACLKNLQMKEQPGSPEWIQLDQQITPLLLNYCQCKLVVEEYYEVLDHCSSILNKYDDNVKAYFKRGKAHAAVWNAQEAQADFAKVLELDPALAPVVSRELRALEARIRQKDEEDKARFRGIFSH

COC(=O)/C=C/C(=O)OC [DMF, dimethyl fumarate]
R value (DMSO/DMF) ([1]; DMF 10 μM 4h): 1.29
R value (DMSO/DMF) ([1]; DMF 50 μM 1h): 1.8
R value (DMSO/DMF) ([1]; DMF 50 μM 2h): 3.42
R value (DMSO/DMF) ([1]; DMF 50 μM 4h): 5.61
R value (DMSO/DMF) ([2]; DMF 10 μM 4h): 1.84
R value (DMSO/DMF) ([2]; DMF 25 μM 4h): 2.86
R value (DMSO/DMF) ([2]; DMF 50 μM 1h): 2.23
R value (DMSO/DMF) ([2]; DMF 50 μM 2h): 4.16
R value (DMSO/DMF) ([2]; DMF 50 μM 4h): 5.3
R value (DMSO/DMF) ([3]; DMF 50 μM 2h): 3.05
R value (DMSO/DMF) ([3]; DMF 50 μM 4h): 6.14
R value (DMSO/DMF) ([4]; DMF 10 μM 4h): 1.43
R value (DMSO/DMF) ([4]; DMF 50 μM 1h): 1.81
R value (DMSO/DMF) ([4]; DMF 50 μM 2h): 2.31
R value (DMSO/DMF) ([4]; DMF 50 μM 4h): 20
R value (DMSO/DMF) ([5]; DMF 50 μM 1h): 3.06
R value (DMSO/DMF) ([5]; DMF 50 μM 2h): 4.21
R value (DMSO/DMF) ([5]; DMF 50 μM 4h): 10.77
